In brackets after ≈: the same amount, converted by molar mass. Where a name gives a salt, the structure may show the parent alone. Read-outs that look alike come from different tables or passages of the source.
Experiments:
Candida albicans 3669 = test: antifungal plate test procedure; type: cell-based
Procedure: (§1) The following represents the typical procedure used. Compound to be tested was placed on sterile dried 1/4" plate disks, and allowed to dry. Agar plates were seeded with fungi and allowed to solidify. The impregnated disks were placed on the seeded Agar surface and incubated for the time required for the particular culture. Results are expressed in MIC (μg/ml) to inhibit growth.

[1] = system: Candida albicans ATCC 38248; test: antifungal plate test procedure; type: cell-based
Procedure: as §1

[2] = system: Candida albicans ATCC 38247; test: antifungal plate test procedure; type: cell-based
Procedure: as §1

[3] = system: Candida albicans ATCC 10231; test: antifungal plate test procedure; type: cell-based
Procedure: as §1

[4] = system: Candida albicans ATCC 38246; test: antifungal plate test procedure; type: cell-based
Procedure: as §1

pinch skin graft = test: survival time of pinch skin graft; type: in vivo, mouse (male DBA/2 donors, male BALB/c recipients); details: intraperitoneally, mean graft survival time ± S.D.
Procedure: (§2) Immunosuppressive activity was evaluated in an in vitro standard pharmacological test procedure to measure lymphocyte proliferation (LAF) and in two in vivo standard pharmacological test procedures. The first in vivo procedure was a popliteal lymph node (PLN) test procedure which measured the effect of compounds of this invention on a mixed lymphocyte reaction and the second in vivo procedure evaluated the survival time of a pinch skin graft.
The second in vivo test procedure is designed to determine the survival time of pinch skin graft from male DBA/2 donors transplanted to male BALB/c recipients. The method is adapted from Billingham R. E. and Medawar P. B., J. Exp. Biol. 28:385-402, (1951). Briefly, a pinch skin graft from the donor is grafted on the dorsum of the recipient as a homograft, and an autograft is used as control in the same region. […] Untreated recipients serve as rejection control. The graft is monitored daily and observations are recorded until the graft becomes dry and forms a blackened scab. This is considered as the rejection day. The mean graft survival time (number of days±S.D.) of the drug treatment group is compared with the control group.

[5] = system: lymphocyte proliferation, cells from the thymus of normal BALB/c mice (PHA and IL-1); test: comitogen-induced thymocyte proliferation procedure (LAF); type: cell-based; details: ratio, thymocytes 72 hours with PHA and IL-1, rapamycin 1.0
Procedure: as §2
Briefly, cells from the thymus of normal BALB/c mice are cultured for 72 hours with PHA and IL-1 and pulsed with tritiated thymidine during the last six hours. […] Cells are harvested and incorporated; radioactivity is determined. inhibition of lymphoproliferation is assessed in percent change in counts per minute from non-drug treated controls. The results are expressed by the following ratio: [formula]

[6] = Candida albicans, 3669, strain 3669, read-out: MIC
[7] = Candida albicans, ATCC38248, ATCC 38248, read-out: MIC
[8] = Candida albicans, ATCC38247, ATCC 38247, read-out: MIC
[9] = Candida albicans, ATCC10231, ATCC 10231, read-out: MIC
[10] = Candida albicans, ATCC38246, ATCC 38246, read-out: MIC

Structure (SMILES) | MIC (Candida albicans 3669; [6]) [mg/L] | MIC [1, 7] [mg/L] | MIC [2, 8] [mg/L] | MIC [3, 9] [mg/L] | MIC [4, 10] [mg/L] | Skin Graft (days + SD), mean graft survival time (pinch skin graft) [days] | LAF (ratio) [5] | also measured
CO[C@H]1C[C@@H]2CC[C@@H](C)[C@@](OC(=O)CCC(=O)OCc3ccccc3)(O2)C(=O)C(=O)N2CCCC[C@H]2C(=O)O[C@H]([C@H](C)C[C@@H]2CC[C@@H](OC(=O)CCC(=O)OCc3ccccc3)[C@H](OC)C2)CC(=O)[C@H](C)/C=C(\C)[C@@H](OC(=O)CCC(=O)OCc2ccccc2)[C@@H](OC)C(=O)[C@H](C)C[C@H](C)/C=C/C=C/C=C/1C [Example 1, Rapamycin-14,31,42-tris(monobenzylsuccinate)] | > 0.4 | > 0.4 | > 0.4 | > 0.4 | > 0.4 | 8.2 ± 1.2 | 0.37 | 
CO[C@H]1C[C@@H]2CC[C@@H](C)[C@@](O)(O2)C(=O)C(=O)N2CCCC[C@H]2C(=O)O[C@H]([C@H](C)C[C@@H]2CC[C@@H](OC(=O)CCC(=O)OCc3ccccc3)[C@H](OC)C2)CC(=O)[C@H](C)/C=C(\C)[C@@H](OC(=O)CCC(=O)OCc2ccccc2)[C@@H](OC)C(=O)[C@H](C)C[C@H](C)/C=C/C=C/C=C/1C [Example 2, Rapamycin-31,42-bis(monobenzylsuccinate)] | 0.4 (≈ 0.309 µM) | 0.4 (≈ 0.309 µM) | > 0.4 | > 0.4 | 0.4 (≈ 0.309 µM) | 10.7 ± 1.2 | 0.9 | 
CO[C@H]1C[C@@H]2CC[C@@H](C)[C@@](O)(O2)C(=O)C(=O)N2CCCC[C@H]2C(=O)O[C@H]([C@H](C)C[C@@H]2CC[C@@H](OC(=O)CCC(=O)OCc3ccccc3)[C@H](OC)C2)CC(=O)[C@H](C)/C=C(\C)[C@@H](O)[C@@H](OC)C(=O)[C@H](C)C[C@H](C)/C=C/C=C/C=C/1C [Example 3, Rapamycin-42-(monobenzylsuccinate)] | 0.1 (≈ 0.0905 µM) | 0.1 (≈ 0.0905 µM) | 0.4 (≈ 0.362 µM) | 0.2 (≈ 0.181 µM) | 0.1 (≈ 0.0905 µM) | 12.7 ± 0.9 | 3.27 | 
CO[C@H]1C[C@@H]2CC[C@@H](C)[C@@](O)(O2)C(=O)C(=O)N2CCCC[C@H]2C(=O)O[C@H]([C@H](C)C[C@@H]2CC[C@@H](OC(=O)CCCC(=O)O)[C@H](OC)C2)CC(=O)[C@H](C)/C=C(\C)[C@@H](OC(=O)CCCC(=O)O)[C@@H](OC)C(=O)[C@H](C)C[C@H](C)/C=C/C=C/C=C/1C [Example 4, Rapamycin-31,42-bishemiglutarate] | 0.4 (≈ 0.35 µM) | 0.2 (≈ 0.175 µM) | > 0.4 | > 0.4 | 0.2 (≈ 0.175 µM) | 10.2 ± 1.7 | 0.56 | 
CO[C@H]1C[C@@H]2CC[C@@H](C)[C@@](O)(O2)C(=O)C(=O)N2CCCC[C@H]2C(=O)O[C@H]([C@H](C)C[C@@H]2CC[C@@H](OC(=O)CCCC(=O)O)[C@H](OC)C2)CC(=O)[C@H](C)/C=C(\C)[C@@H](OC(=O)CCCC(=O)O)[C@@H](OC)C(=O)[C@H](C)C[C@H](C)/C=C/C=C/C=C/1C [Example 5, Rapamycin-31,42-hemiglutarate bissodium salt] |  |  |  |  |  |  |  | MIC (Candida albicans 3669; strain 3669, bissodium salt): > 0.4 mg/L; MIC ([1]; ATCC 38248, bissodium salt): > 0.4 mg/L; MIC ([2]; ATCC 38247, bissodium salt): > 0.4 mg/L; MIC ([3]; ATCC 10231, bissodium salt): 0.4 mg/L; MIC ([4]; ATCC 38246, bissodium salt): > 0.4 mg/L; Skin Graft (days + SD), mean graft survival time (pinch skin graft; bissodium salt): 8.0 ± 1.7 days; LAF (ratio) ([5]; bissodium salt): 0.02
CO[C@H]1C[C@@H]2CC[C@@H](C)[C@@](O)(O2)C(=O)C(=O)N2CCCC[C@H]2C(=O)O[C@H]([C@H](C)C[C@@H]2CC[C@@H](OC(=O)CCCC(=O)O)[C@H](OC)C2)CC(=O)[C@H](C)/C=C(\C)[C@@H](OC(=O)CCCC(=O)O)[C@@H](OC)C(=O)[C@H](C)C[C@H](C)/C=C/C=C/C=C/1C [Example 6, Rapamycin-31,42-bishemiglutarate bistromethamine salt] |  |  |  |  |  | 8.0 ± 0.9 | 0.01 | MIC (Candida albicans 3669; strain 3669): > 0.4 mg/L; MIC ([1]; ATCC 38248): > 0.4 mg/L; MIC ([2]; ATCC 38247): 0.4 mg/L; MIC ([3]; ATCC 10231): 0.4 mg/L; MIC ([4]; ATCC 38246): > 0.4 mg/L
CO[C@H]1C[C@@H]2CC[C@@H](C)[C@@](O)(O2)C(=O)C(=O)N2CCCC[C@H]2C(=O)O[C@H]([C@H](C)C[C@@H]2CC[C@@H](OC(=O)COCC(=O)O)[C@H](OC)C2)CC(=O)[C@H](C)/C=C(\C)[C@@H](O)[C@@H](OC)C(=O)[C@H](C)C[C@H](C)/C=C/C=C/C=C/1C [Example 7, Rapamycin-42-hemi-3'-oxoglutarate] | 0.2 (≈ 0.194 µM) | 0.1 (≈ 0.0971 µM) | 0.1 (≈ 0.0971 µM) | 0.1 (≈ 0.0971 µM) | 0.4 (≈ 0.388 µM) | 12.0 ± 1.0 | 0.97 | 
CO[C@H]1C[C@@H]2CC[C@@H](C)[C@@](O)(O2)C(=O)C(=O)N2CCCC[C@H]2C(=O)O[C@H]([C@H](C)C[C@@H]2CC[C@@H](OC(=O)COCC(=O)O)[C@H](OC)C2)CC(=O)[C@H](C)/C=C(\C)[C@@H](OC(=O)COCC(=O)O)[C@@H](OC)C(=O)[C@H](C)C[C@H](C)/C=C/C=C/C=C/1C [Example 8] | > 0.4 | > 0.4 | 0.4 (≈ 0.349 µM) |  | > 0.4 |  | positive ratio | MIC ([3]; ATCC 10231): 0.4 mg/L (≈ 0.349 µM)
CO[C@H]1C[C@@H]2CC[C@@H](C)[C@@](O)(O2)C(=O)C(=O)N2CCCC[C@H]2C(=O)O[C@H]([C@H](C)C[C@@H]2CC[C@@H](OC(=O)COCC(=O)O)[C@H](OC)C2)CC(=O)[C@H](C)/C=C(\C)[C@@H](OC(=O)COCC(=O)O)[C@@H](OC)C(=O)[C@H](C)C[C@H](C)/C=C/C=C/C=C/1C [Example 9, Rapamycin-31,42-bishemi-3'-oxoglutarate disodium salt] |  |  |  |  |  |  |  | MIC (Candida albicans 3669; strain 3669): > 0.4 mg/L; MIC ([1]; ATCC 38248, disodium salt): 0.4 mg/L; MIC ([2]; ATCC 38247, disodium salt): 0.2 mg/L; MIC ([3]; ATCC 10231, disodium salt): 0.2 mg/L; MIC ([4]; ATCC 38246): > 0.4 mg/L; Skin Graft (days + SD), mean graft survival time (pinch skin graft; disodium salt): 10.2 ± 1.2 days; LAF (ratio) ([5]; disodium salt): 0.22
CO[C@H]1C[C@@H]2CC[C@@H](C)[C@@](O)(O2)C(=O)C(=O)N2CCCC[C@H]2C(=O)O[C@H]([C@H](C)C[C@@H]2CC[C@@H](OC(=O)COCC(=O)O)[C@H](OC)C2)CC(=O)[C@H](C)/C=C(\C)[C@@H](OC(=O)COCC(=O)O)[C@@H](OC)C(=O)[C@H](C)C[C@H](C)/C=C/C=C/C=C/1C [Example 10, Rapamycin-31,42-bishemi-3'-oxoglutarate bistromethamine salt] |  |  |  |  |  | 10.8 ± 0.8 | 0.18 | MIC (Candida albicans 3669; strain 3669): > 0.4 mg/L; MIC ([1]; ATCC 38248): 0.4 mg/L; MIC ([2]; ATCC 38247): 0.2 mg/L; MIC ([3]; ATCC 10231): 0.1 mg/L; MIC ([4]; ATCC 38246): > 0.4 mg/L
CO[C@H]1C[C@@H]2CC[C@@H](C)[C@@](O)(O2)C(=O)C(=O)N2CCCC[C@H]2C(=O)O[C@H]([C@H](C)C[C@@H]2CC[C@@H](OC(=O)CCC(=O)O)[C@H](OC)C2)CC(=O)[C@H](C)/C=C(\C)[C@@H](OC(=O)CCC(=O)O)[C@@H](OC)C(=O)[C@H](C)C[C@H](C)/C=C/C=C/C=C/1C [Example 11, Rapamycin-31,42-bishemisuccinate] | > 0.4 | > 0.4 | > 0.4 | > 0.4 | > 0.4 | 7.8 ± 1.7 |  | 
C=CCOC(=O)CCCC(=O)O[C@@H]1CC[C@@H](C[C@@H](C)[C@@H]2CC(=O)[C@H](C)/C=C(\C)[C@@H](O)[C@@H](OC)C(=O)[C@H](C)C[C@H](C)/C=C/C=C/C=C(\C)[C@@H](OC)C[C@@H]3CC[C@@H](C)[C@@](O)(O3)C(=O)C(=O)N3CCCC[C@H]3C(=O)O2)C[C@H]1OC [Example 14, Rapamycin-42-allylglutarate] |  |  |  |  |  | 11.0 ± 0.0 | 3.42 | 
C=CCOC(=O)CCCC(=O)O[C@@H]1/C(C)=C/[C@@H](C)C(=O)C[C@@H]([C@H](C)C[C@@H]2CC[C@@H](O)[C@H](OC)C2)OC(=O)[C@@H]2CCCCN2C(=O)C(=O)[C@]2(O)O[C@@H](CC[C@H]2C)C[C@H](OC)/C(C)=C/C=C/C=C/[C@@H](C)C[C@@H](C)C(=O)[C@@H]1OC [Example 15, Rapamycin-31-allylglutarate] |  |  |  |  |  | 9.8 ± 0.8 | 0.40 | 
